Data: ChEMBL document CHEMBL1201862, “PubChem BioAssay data set” (2004)
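Cells were grown in 96-well plates and exposed to each compound for 48 hours at five concentrations; endpoints were interpolated linearly between bracketing concentrations, or set to the highest concentration if not reached. At the GI50, growth is halved.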 The source made the active and inactive calls. Cut-off read from the data, not from the text of the source: active = GI50 up to about 1.1 µM and inactive = higher.

How the values were obtained:
Test in all cases: NCI tumour cell line growth inhibition, 48 h
KM-20L2 = system: KM-20L2
DMS-114 = system: DMS-114
DMS-273 = system: DMS-273
HOP-18 = system: HOP-18
MDA-MB-231 = system: MDA-MB-231
LXFL 529 = system: LXFL 529
SNB-78 = system: SNB-78

Compound	GI50 (KM-20L2)	GI50 (DMS-114)	GI50 (MDA-MB-231)	further results
CCCC[S+]([O-])CC(CO)NC(=O)/C=C/c1c(C)[nH]c(=O)[nH]c1=O (centres undefined)	5.64 µM (inactive)	6.41 µM (inactive)		GI50 (DMS-273): 9.75 µM (inactive); GI50 (HOP-18): 31.6 µM (inactive)
CC1(C)OCC(CO)(CO)CO1			> 100 µM (inactive)	
COc1cc([N+](=O)[O-])ccc1N1C(=O)C2c3[nH]c4ccccc4c3C3CCC(C(C)(C)C)CC3C2C1=O (centres undefined)			14.7 µM (inactive)	
CC1(C)N=C(/C(Cl)=[N+](/[O-])C(=O)c2ccc(Cl)cc2)C(C)(C)N1O			21.8 µM (inactive)	
O=C(Nc1cccc([N+](=O)[O-])c1)C(=O)C(C(=O)c1ccccc1F)C1OC(=O)C2C=CC=CC21 (centres undefined)	41.2 µM (inactive)			GI50 (LXFL 529): 30.5 µM (inactive); GI50 (SNB-78): 36.6 µM (inactive); GI50 (DMS-273): 31.7 µM (inactive)
COc1cc(/N=N\c2cccc(S(=O)(=O)O)c2)ccc1/N=N\c1ccc(/C=C/c2ccc(-n3on3-c3ccc(/C=C/c4ccc(/N=N/c5ccc(/N=N\c6cccc(S(=O)(=O)O)c6)cc5OC)cc4S(=O)(=O)O)c(S(=O)(=O)O)c3)cc2S(=O)(=O)O)c(S(=O)(=O)O)c1	> 100 µM (inactive)	> 100 µM (inactive)		GI50 (SNB-78): > 100 µM (inactive); GI50 (DMS-273): > 69.5 µM (inactive); GI50 (HOP-18): > 100 µM (inactive)
O=Nn1c2ccccc2c2cc([N+](=O)[O-])ccc21			18.9 µM (inactive)	
O=C(Nc1ccc(Cl)cc1)c1cc2cc(/N=N/c3ccccc3Cl)ccc2oc1=O	4.93 µM (inactive)	5.81 µM (inactive)		GI50 (LXFL 529): 8.11 µM (inactive); GI50 (SNB-78): 22.9 µM (inactive); GI50 (HOP-18): 33.8 µM (inactive)
O=C1c2cc3c(cc2CC1Cc1ccc2c(c1)CCC2)CCC3 (centres undefined)			26.4 µM (inactive)	
CCOC(=O)C(O)(NC(=O)c1ccccc1F)C(F)(F)F (centres undefined)			2.69 µM (inactive)	
Oc1nc2ccccc2c2oc3ccccc3c12			83.8 µM (inactive)	
COc1ccc(C(=O)C2CC3(CCC2(O)c2ccc(OC)cc2)CC(=O)Nc2ccccc2C3=O)cc1 (centres undefined)			> 100 µM (inactive)	
COc1cc(C2c3cc4c(cc3[C@@H](Nc3ccc(Oc5ccccc5)cc3)C3COC(=O)[C@H]23)OCO4)cc(OC)c1O (some centres undefined)	1.17 µM (inactive)	0.597 µM (active)		GI50 (SNB-78): > 61 µM (inactive); GI50 (HOP-18): 4.47 µM (inactive)
CCOC(=O)Cc1cnc(NC(NC(=O)CC)(C(F)(F)F)C(F)(F)F)s1			> 100 µM (inactive)	
COS(=O)c1cc(Cl)cc(Cl)c1O (centres undefined)		> 100 µM (inactive)		GI50 (LXFL 529): > 100 µM (inactive)
CCOC(=O)C1=NN(c2ccc(C)cc2)C2=CC(C)=NN(C)C(=S)N21			82.4 µM (inactive)	
